Laboratory results from publication PMC9519446, “Discovery of an Orally Active Benzoxaborole Prodrug Effective in the Treatment of Chagas Disease in Non-human Primates” (Nature microbiology, 2022).
Several values for one entry are separate records, joined by “and”; a condition that tells them apart may be missing. Equal entries are not always repeated.

System: TcCBP KO T. cruzi extracellular amastigotes
Experiment: Extracellular amastigote assay with serine carboxypeptidase knockout T. cruzi
Type: cell-based, Trypanosoma cruzi
Details: for % of maximum: Fig 2.c, TcCBP KO
Protocol: The in vitro anti-T. cruzi amastiogote activity assay was performed and optimized based on the protocol described previously. The change in tdTomato fluorescence intensity was determined as a measurement of growth over 72 hours of culture. For assaying drug effects on extracellular amastigotes, trypomastigotes were collected from infected Vero cell cultures and converted in acidic media as previously described. Amastigotes (50,000/well) were incubated with 2-fold serial dilutions of compounds for 48 hours. The ATP production was used as an indication of growth in this case, and was measured by ATPlite Luminescence ATP Detection Assay System (PerkinElmer). Both fluorescence and luminescence were read using a BioTek Synergy Hybrid Multi-Mode reader equipped with the software Gene5 v 2.0 (BioTek). The dose-response curve was generated by […] analysis with GraphPad Prism v9.4.0 (GraphPad Software).
The CBPs knockout was produced using ribonucleoprotein (RNP) complexes as previously described. Briefly, Brazil tdTomato strain epimastigotes were electroporated with RNP complexes containing SaCas9 and an sgRNA targeting CBP gene TcBrA4_0048170, plus a repair template containing stop codons in all three reading frames and the M13 sequence for use as a PCR anchor. The sgRNA targeted the ‘[…]” sequence. After 2 days of recovery, single-cell clones were derived by depositing epimastigotes into a 96-well plate at a density of 0.5 cell/well by using a MoFlo Astrios EQ cell sorter (Beckman Coulter). DNA isolation was performed for clones, and primer pair of 5’-[…]-3’ and 5’- […] -3’ was used for amplifying the wild type allele, while primer pair of M13-F: 5’- […] -3’ and 5’- […] -3’ was used for amplifying the mutant allele.

SMILES: Cc1c(C(=O)NC(C(=O)OCc2ccc(F)c(F)c2)C(C)C)ccc2c1B(O)OC2 (stereo not drawn) [AN14353]
- % of maximum (0.00): 11% and 2% and 8%
- % of maximum (0.30): 1% and -4% and 3%
- % of maximum (-0.30): 1% and 9%
- % of maximum (-0.60): 14% and 11% and 5%
- % of maximum (-0.90): 20% and 18% and 16%
- % of maximum (-1.20): 31% and 40% and 33%
- % of maximum (-1.51): 54% and 51% and 59%
- % of maximum (-1.81): 101% and 104% and 95%
- % of maximum (-2.11): 106% and 104% and 96%
- % of maximum (-2.41): 101% and 104%
- % of maximum (-2.71): 100% and 102%
- IC50 (Trypanosoma cruzi, read-out: TcCBP KO IC50): 44.4 nM
